The values that follow come from publication PMC10892041, “Vanadium Complexes with Thioanilide Derivatives of Amino Acids: Inhibition of Human Phosphatases and Specificity in Various Cell Models of Metabolic Disturbances” (Pharmaceuticals, 2024).

By IC50 is commonly meant the concentration needed to halve the response being measured.

For one series, the system named is myocytes C2C12. In words: Viability of myocytes C2C12 after 24 h incubation (resazurin-based reagent). The conditions noted are these: 50 µM; 24 h incubation; control solvent only. On the technique in general: The colour change of resazurin is a common sign of viable cells or microbes.
Another series deals with T1, LAR (Homo sapiens, UniProt P10586).
T1 sequence (P10586 1352-1607 limits assumed): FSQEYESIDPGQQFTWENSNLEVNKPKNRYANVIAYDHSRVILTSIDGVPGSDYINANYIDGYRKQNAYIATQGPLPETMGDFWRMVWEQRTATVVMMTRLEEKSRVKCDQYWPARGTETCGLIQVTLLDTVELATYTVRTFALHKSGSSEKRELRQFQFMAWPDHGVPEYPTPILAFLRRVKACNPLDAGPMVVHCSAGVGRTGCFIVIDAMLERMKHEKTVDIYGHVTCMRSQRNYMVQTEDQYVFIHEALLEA
In words: Inhibition of human recombinant tyrosine phosphatase LAR (DiFMUP fluorescence). The series is classed as biochemical. The conditions noted are these: for Inhibition of LAR, percentage of inhibition of the control: 1 µM, control solvent only, SD did not exceed 6%. An outline of the steps:
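Human recombinant phosphatases (SHP1 400 ng/mL, SHP2 50 ng/mL, LAR 5 ng/mL final) were pre-incubated 10 min with compound in 25 mM MOPS pH 7.0, 50 mM NaCl, 1 mM DTT, 0.05% Tween-20. DiFMUP (0.1 mM final) was added for 20 min at 23 °C and fluorescence read at 355/560 nm. Screening used 1 µM compound (% inhibition vs vehicle); IC50 also reported.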

A further series has as its target T2, PTP1B (Homo sapiens, UniProt P18031).
T2 construct: purchased Sigma-Aldrich
T2 sequence (P18031 1-435): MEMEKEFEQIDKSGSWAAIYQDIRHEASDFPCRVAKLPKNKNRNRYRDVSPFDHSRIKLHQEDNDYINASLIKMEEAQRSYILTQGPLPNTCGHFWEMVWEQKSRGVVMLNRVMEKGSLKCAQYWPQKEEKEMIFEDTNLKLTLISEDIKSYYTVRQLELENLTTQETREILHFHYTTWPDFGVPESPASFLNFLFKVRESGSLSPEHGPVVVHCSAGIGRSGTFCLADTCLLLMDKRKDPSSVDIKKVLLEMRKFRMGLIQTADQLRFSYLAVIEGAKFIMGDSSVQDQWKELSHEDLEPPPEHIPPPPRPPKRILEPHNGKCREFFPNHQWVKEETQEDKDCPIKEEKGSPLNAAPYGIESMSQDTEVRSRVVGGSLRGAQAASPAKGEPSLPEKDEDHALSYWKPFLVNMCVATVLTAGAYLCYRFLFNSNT
Particulars: cited from earlier work.

Like-named read-outs stand apart in the source and are kept apart here.

`Cc1occc(=O)c1[O-].Cc1occc(=O)c1[O-].[O]=[V+2]` [BMOV, bis(maltolato)oxidovanadium(IV), reference compound]: the “Cell viability of myocytes C2C12, % of the control” value in the series with myocytes C2C12 was determined as 90 ± 4%. Besides, at LAR, the IC50 came to 140 nM and the “Inhibition of LAR, percentage of inhibition of the control” value is 58%.

`O=S(=O)([O-])[O-].[O]=[V+2]` [VOSO4, reference compound]: the IC50 is 18 nM on PTP1B (lower end of published range), 380 nM at PTP1B (upper end of published range) and 95 nM on LAR. Moreover, on LAR, the “Inhibition of LAR, percentage of inhibition of the control” value turned out to be 44%.
